From US10004701B2, “Methods and compositions for treating infection” (UNIVERSITY OF ROCHESTER, priority 2012, dated 2018) come the findings set out here.

Counter-ions that a name gives are not always drawn. Like-named read-outs stand apart in the source and are kept apart here.

Common to all, as to experiment: AK assay 384-well format, Prestwick library screening
In one assay the test system is E. faecium. The format is cell-based, Enterococcus faecium. The following applies: Enterococcus faecium, 3 h, 50 μM final drug concentration.
The test system of assay [1] is S. aureus strain USA300-0114. The format is cell-based, Staphylococcus aureus. Particulars: Staphylococcus aureus, USA300, 3 h, 50 μM final drug concentration.
A further assay deals with K. pneumoniae. The class given is cell-based, Klebsiella pneumoniae. The following applies: Klebsiella pneumoniae, 3 h, 50 μM final drug concentration.
Assay [2] deals with A. baumannii strain 98-37-09. The format is cell-based, Acinetobacter baumannii. Particulars: Acinetobacter baumannii, 983709, 3 h, 50 μM final drug concentration.
The test system of a further assay is P. aeruginosa. The class given is cell-based, Pseudomonas aeruginosa. Particulars: Pseudomonas aeruginosa, 3 h, 50 μM final drug concentration.
A further assay concerns E. cloacae. The format is cell-based, Enterobacter cloacae. Particulars: Enterobacter cloacae, 3 h, 50 μM final drug concentration.
The subject of another assay is E. coli. The class given is cell-based, Escherichia coli. The following applies: Escherichia coli, 3 h, 50 μM final drug concentration.
The mark [3] stands for this setting: 384-well format, cutoff for positive-scoring molecules 3-fold increase, read-out: AK-based Prestwick Library Screening Results, E. faecium (increase in extracellular AK activity).
[4] abbreviates: 384-well format, cutoff for positive-scoring molecules 3-fold increase, read-out: AK-based Prestwick Library Screening Results, S. aureus (increase in extracellular AK activity).
The mark [5] stands for this setting: 384-well format, cutoff for positive-scoring molecules 3-fold increase, read-out: AK-based Prestwick Library Screening Results, K. pneumoniae (increase in extracellular AK activity).
[6] abbreviates: 384-well format, cutoff for positive-scoring molecules 3-fold increase, read-out: AK-based Prestwick Library Screening Results, A. baumannii (increase in extracellular AK activity).
[7] abbreviates: 384-well format, cutoff for positive-scoring molecules 3-fold increase, read-out: AK-based Prestwick Library Screening Results, P. aeruginosa (increase in extracellular AK activity).
[8] abbreviates: 384-well format, cutoff for positive-scoring molecules 3-fold increase, read-out: AK-based Prestwick Library Screening Results, E. cloacae (increase in extracellular AK activity).
Setting [9] is: 384-well format, cutoff for positive-scoring molecules 3-fold increase, read-out: AK-based Prestwick Library Screening Results, E. coli (increase in extracellular AK activity).
Setting [10] is: planktonic, […], read-out: AK-based Prestwick Library Screening Results, E. faecium (fold increase in extracellular AK activity).
Setting [11] is: planktonic, […], read-out: AK-based Prestwick Library Screening Results, S. aureus (fold increase in extracellular AK activity).
Where [12] appears, read: planktonic, […], read-out: AK-based Prestwick Library Screening Results, K. pneumoniae (fold increase in extracellular AK activity).
Setting [13] is: planktonic, […], read-out: AK-based Prestwick Library Screening Results, A. baumannii (fold increase in extracellular AK activity).
The mark [14] stands for this setting: planktonic, […], read-out: AK-based Prestwick Library Screening Results, P. aeruginosa (fold increase in extracellular AK activity).
The mark [15] stands for this setting: planktonic, […], read-out: AK-based Prestwick Library Screening Results, E. cloacae (fold increase in extracellular AK activity).
Where [16] appears, read: planktonic, […], read-out: AK-based Prestwick Library Screening Results, E. coli (fold increase in extracellular AK activity).

With `C#C[C@]1(O)CC[C@H]2[C@@H]3CCC4=CC(=O)CC[C@@H]4[C@H]3CC[C@@]21C` [Norethindrone], the fold induction at 50 µM with E. faecium (setting [3]) was determined as 1; in assay [1] (setting [4]), 0.8; with K. pneumoniae (setting [5]), 0.7; in assay [2] (setting [6]) it was 0.7; with P. aeruginosa (setting [7]), 0.8; in the assay on E. cloacae (setting [8]), 0.9. Further, the fold induction at 50 µM in the assay with E. coli (setting [9]) was 0.7.
Take `c1cncc([C@@H]2CCCCN2)c1` [Anabasine]: the fold induction at 50 µM with E. faecium (setting [10]) turned out to be 0.9; in assay [1] (setting [11]), 0.6; in the assay with K. pneumoniae (setting [12]), 0.8; in assay [2] (setting [13]), 0.8; with P. aeruginosa (setting [14]), 0.9; with E. cloacae (setting [15]) it was 1. Further, the fold induction at 50 µM in the assay on E. coli (setting [16]) worked out at 1.
For the compound `N[C@@H]1C[C@H]1c1ccccc1` [Tranylcypromine hydrochloride], the fold induction at 50 µM with E. faecium (setting [3]) was found to be 1; in assay [1] (setting [4]) it was 0.8; in the assay with K. pneumoniae (setting [5]) it was 0.6; in assay [2] (setting [6]), 0.9; with P. aeruginosa (setting [7]), 0.8; in the assay on E. cloacae (setting [8]), 0.9. Besides, the fold induction at 50 µM with E. coli (setting [9]) came to 0.8.
Take `CC(=O)S[C@@H]1CC2=CC(=O)CC[C@]2(C)[C@H]2CC[C@@]3(C)[C@@H](CC[C@@]34CCC(=O)O4)[C@H]12` [Spironolactone]: the fold induction at 50 µM in the assay on E. faecium (setting [3]) came to 1; in assay [1] (setting [4]), 1.2; in the assay with K. pneumoniae (setting [5]), 1; in assay [2] (setting [6]) it was 1.1; with P. aeruginosa (setting [7]), 1; in the assay on E. cloacae (setting [8]), 1.3. In addition, the fold induction at 50 µM in the assay with E. coli (setting [9]) is 1.4.
In the case of `CC(C)(C)NCC(O)c1ccc(O)c(CO)c1` (centres unmarked) [Salbutamol], the fold induction at 50 µM was 1 with E. faecium (setting [3]); 0.8 in assay [1] (setting [4]); 0.7 in the assay on K. pneumoniae (setting [5]); 0.9 in assay [2] (setting [6]); 0.8 with P. aeruginosa (setting [7]); 1.4 in the assay with E. cloacae (setting [8]). In addition, in the assay on E. coli (setting [9]), the fold induction at 50 µM was 0.9.
As to `C=C(CC)C(=O)c1ccc(OCC(=O)O)c(Cl)c1Cl` [Ethacrynic acid], the fold induction at 50 µM is 1.3 in the assay with E. faecium (setting [3]); 1.4 in assay [1] (setting [4]); 0.6 with K. pneumoniae (setting [5]); 0.8 in assay [2] (setting [6]); 0.7 in the assay on P. aeruginosa (setting [7]); 0.8 in the assay with E. cloacae (setting [8]). Moreover, in the assay on E. coli (setting [9]), the fold induction at 50 µM is 0.7.
For `CC(=O)c1cc2ccccc2oc1=O` [Compound 3-Acetylcoumarin, 3-Acetylcoumarin], the fold induction at 50 µM in the assay on E. faecium (planktonic, cutoff for positive-scoring molecules 3-fold increase, read-out: AK-based Prestwick Library Screening Results, E. faecium (fold increase in extracellular AK activity)) was 0.9; in assay [1] (planktonic, cutoff for positive-scoring molecules 3-fold increase, read-out: AK-based Prestwick Library Screening Results, S. aureus (fold increase in extracellular AK activity)), 0.6; with K. pneumoniae (planktonic, cutoff for positive-scoring molecules 3-fold increase, read-out: AK-based Prestwick Library Screening Results, K. pneumoniae (fold increase in extracellular AK activity)), 0.6; in assay [2] (planktonic, cutoff for positive-scoring molecules 3-fold increase, read-out: AK-based Prestwick Library Screening Results, A. baumannii (fold increase in extracellular AK activity)), 0.8; in the assay with P. aeruginosa (planktonic, cutoff for positive-scoring molecules 3-fold increase, read-out: AK-based Prestwick Library Screening Results, P. aeruginosa (fold increase in extracellular AK activity)), 0.8; in the assay on E. cloacae (planktonic, cutoff for positive-scoring molecules 3-fold increase, read-out: AK-based Prestwick Library Screening Results, E. cloacae (fold increase in extracellular AK activity)), 1.1. In the assay with E. coli (planktonic, cutoff for positive-scoring molecules 3-fold increase, read-out: AK-based Prestwick Library Screening Results, E. coli (fold increase in extracellular AK activity)), the fold induction at 50 µM was determined as 0.7.
Consider `NS(=O)(=O)c1cc2c(cc1C(F)(F)F)NCNS2(=O)=O` [Hydroflumethiazide], for which the fold induction at 50 µM in the assay with E. faecium (setting [3]) was found to be 0.9; in assay [1] (setting [4]), 0.5; with K. pneumoniae (setting [5]), 0.5; in assay [2] (setting [6]), 0.7; with P. aeruginosa (setting [7]), 0.5; in the assay on E. cloacae (setting [8]) it was 0.7. The fold induction at 50 µM with E. coli (setting [9]) is 0.7.
As to `CC1COc2c(N3CCN(C)CC3)c(F)cc3c(=O)c(C(=O)O)cn1c23` (centres unmarked) [Ofloxacin], the fold induction at 50 µM in the assay with E. faecium (planktonic E. faecium, 384-well, cutoff for positive-scoring molecules 3-fold increase, read-out: AK-based Prestwick Library Screening Results: E. faecium (increase in extracellular AK activity)) was 1.4; in assay [1] (planktonic S. aureus, 384-well, cutoff for positive-scoring molecules 3-fold increase, read-out: AK-based Prestwick Library Screening Results: S. aureus (increase in extracellular AK activity)), 2.8; with K. pneumoniae (planktonic K. pneumoniae, 384-well, cutoff for positive-scoring molecules 3-fold increase, read-out: AK-based Prestwick Library Screening Results: K. pneumoniae (increase in extracellular AK activity)), 1; in assay [2] (planktonic A. baumannii, 384-well, cutoff for positive-scoring molecules 3-fold increase, read-out: AK-based Prestwick Library Screening Results: A. baumannii (increase in extracellular AK activity)) it was 3.7; with P. aeruginosa (planktonic P. aeruginosa, 384-well, cutoff for positive-scoring molecules 3-fold increase, read-out: AK-based Prestwick Library Screening Results: P. aeruginosa (increase in extracellular AK activity)), 20; in the assay on E. cloacae (planktonic E. cloacae, 384-well, cutoff for positive-scoring molecules 3-fold increase, read-out: AK-based Prestwick Library Screening Results: E. cloacae (increase in extracellular AK activity)), 4.1. Also, in the assay on E. coli (planktonic E. coli, 384-well, cutoff for positive-scoring molecules 3-fold increase, read-out: AK-based Prestwick Library Screening Results: E. coli (increase in extracellular AK activity)), the fold induction at 50 µM was 15.7.
As to `Nc1ccc(S(=O)(=O)Nc2ccccn2)cc1` [Sulfapyridine], the fold induction at 50 µM in the assay with E. faecium (setting [10]) worked out at 1; in assay [1] (setting [11]), 1.4; with K. pneumoniae (setting [12]), 0.9; in assay [2] (setting [13]), 2.2; in the assay with P. aeruginosa (setting [14]) it was 1.1; with E. cloacae (setting [15]) it was 1.6. The fold induction at 50 µM with E. coli (setting [16]) worked out at 1.2.
In the case of `O=c1oc2ccccc2c(O)c1Cc1c(O)c2ccccc2oc1=O` [Dicumarol], the fold induction at 50 µM in the assay on E. faecium (cutoff for positive-scoring molecules 3-fold increase, read-out: AK-based Prestwick Library Screening Results, E. faecium (fold increase in extracellular AK activity)) amounted to 1.3; in assay [1] (cutoff for positive-scoring molecules 3-fold increase, read-out: AK-based Prestwick Library Screening Results, S. aureus (fold increase in extracellular AK activity)) it was 1.3; in the assay on K. pneumoniae (cutoff for positive-scoring molecules 3-fold increase, read-out: AK-based Prestwick Library Screening Results, K. pneumoniae (fold increase in extracellular AK activity)), 1.1; in assay [2] (cutoff for positive-scoring molecules 3-fold increase, read-out: AK-based Prestwick Library Screening Results, A. baumannii (fold increase in extracellular AK activity)), 1.3; in the assay with P. aeruginosa (cutoff for positive-scoring molecules 3-fold increase, read-out: AK-based Prestwick Library Screening Results, P. aeruginosa (fold increase in extracellular AK activity)), 1.2; in the assay with E. cloacae (cutoff for positive-scoring molecules 3-fold increase, read-out: AK-based Prestwick Library Screening Results, E. cloacae (fold increase in extracellular AK activity)), 1.5. Further, the fold induction at 50 µM with E. coli (cutoff for positive-scoring molecules 3-fold increase, read-out: AK-based Prestwick Library Screening Results, E. coli (fold increase in extracellular AK activity)) was determined as 1.1.
